This passage reports autophagic flux and vacuole formation results from patent publication US20230293464A1, “TREATMENT OF PANCREATIC DUCTAL ADENOCARCINOMA WITH MIRDAMETINIB” (SpringWorks Therapeutics Inc., priority 2022, published 2023).

Structures are written as SMILES.

One assay deals with PDAC cell lines. Put plainly: Autophagic flux, mCherry-EGFP-LC3B autophagy reporter (flow cytometry, confocal imaging). The assay is classed as cell-based. Particulars: panel of PDAC cell lines, 24-hours treatment. How it is done: Autophagic flux was determined using flow cytometry. […] Live cell imaging was performed using confocal microscopy. FIG. 1D indicates the threshold of fluorescent intensity was set to include puncta and exclude cytosolic green and background fluorescence. Green and red puncta were quantified from FIG. 1C and plotted.

For a further assay, the system named is PDAC cells. Put plainly: Vacuole formation on apilimod treatment. Particulars: FIG. 3A. The assay is classed as cell-based. An excerpt: Cells were fixed and stained with EEA1 and LAMP1 antibodies and analyzed with confocal microscopy.

For the compound `O=C(NOC[C@H](O)CO)c1ccc(F)c(F)c1Nc1ccc(I)cc1F` (single isomer, unassigned) [mirdametinib], in the assay with PDAC cell lines, the autophagic flux entry was “substantially induced autophagic flux”.

For `Cc1cccc(/C=N/Nc2cc(N3CCOCC3)nc(OCCc3ccccn3)n2)c1` [apilimod], the vacuole formation entry in the assay on PDAC cells is “dose-dependent vacuole formation”.
